Results: ChEMBL document CHEMBL2401690, “Discovery of RG7388, a potent and selective p53-MDM2 inhibitor in clinical development” (J Med Chem, 2013)

Key:
[1] = Total plasma clearance in C57 mouse at 5 mg/kg, iv; type: ADME, organism-based; set-up: dose 5 mg/kg, route intravenous
SW480 = assay: cells; conditions: Homo sapiens
Description: Cytotoxicity against human SW480 cells expressing p53 mutant assessed as growth inhibition by MTT assay

[2] = Apparent terminal half-life in C57 mouse at 5 mg/kg, iv; type: ADME, organism-based; set-up: dose 5 mg/kg, route intravenous; conditions: in vivo, read-out: betat1/2(app) (converted)
MDA-MB-435 = assay: cells; conditions: Homo sapiens
Description: Cytotoxicity against human MDA-MB-435 cells expressing p53 mutant assessed as growth inhibition by MTT assay

[3] = Cmax in C57 mouse at 50 mg/kg, po; type: ADME, organism-based; set-up: dose 50 mg/kg, route oral; conditions: in vivo
RKO = assay: cells; conditions: Homo sapiens
Description: Cytotoxicity against human RKO cells expressing wild type p53 assessed as growth inhibition by MTT assay

SJSA-1 [4] = assay: cells; conditions: Homo sapiens
Description: Cytotoxicity against human SJSA1 cells expressing wild type p53 assessed as growth inhibition by MTT assay

[5] = Oral bioavailability in C57 mouse at 50 mg/kg; type: ADME, organism-based; conditions: in vivo
[6] = Clearance in human liver microsomes at […] by LC-MS/MS analysis; type: ADME, Microsome
HCT-116 = assay: cells; conditions: Homo sapiens
Description: Cytotoxicity against human HCT116 cells expressing wild type p53 assessed as growth inhibition by MTT assay

SJSA-1 [7] = assay: Antitumor activity against human SJSA1 cells xenografted in nude mouse assessed as tumor growth inhibition at 100 mg/kg, po after 2 weeks relative to control; type: functional; conditions: SJSA-1, 336 h, read-out: TGI
[8] = Half life in nude mouse at 5 mg/kg, iv; type: ADME, organism-based; set-up: dose 5 mg/kg, route intravenous; conditions: in vivo
SJSA-1 [9] = assay: animal or person; conditions: Mus musculus, SJSA-1, po, 336 h, read-out: TGI
Description: Antitumor activity against human SJSA1 cells xenografted in nude mouse assessed as tumor growth inhibition at 50 mg/kg, po after 2 weeks relative to control

[10] = AUC in nude mouse xenografted with human SJSA1 cells at 50 mg/kg, po; type: ADME, organism-based, SJSA-1; set-up: dose 50 mg/kg, route oral; conditions: in vivo
[11] = AUC in nude mouse xenografted with human SJSA1 cells at 100 mg/kg, po; type: ADME, organism-based, SJSA-1; set-up: dose 100 mg/kg, route oral; conditions: in vivo
[12] = Clearance in nude mouse at 5 mg/kg, iv; type: ADME, organism-based; set-up: dose 5 mg/kg, route intravenous; conditions: in vivo
[13] = AUC in nude mouse xenografted with human SJSA1 cells at 12.5 mg/kg, po; type: ADME, organism-based, SJSA-1; set-up: dose 12.5 mg/kg, route oral; conditions: in vivo
SJSA-1 [14] = assay: Induction of apoptosis in human SJSA1 cells after 48 hrs by annexin V staining assay; type: functional, cell-based
[15] = AUC in nude mouse xenografted with human SJSA1 cells at 25 mg/kg, po; type: ADME, organism-based, SJSA-1; set-up: dose 25 mg/kg, route oral; conditions: in vivo
SJSA-1 [16] = assay: Antitumor activity against human SJSA1 cells xenografted in nude mouse assessed as tumor growth inhibition at 12.5 mg/kg, po after 2 weeks relative to control; type: functional; conditions: SJSA-1, 336 h, read-out: TGI
[17] = target: E3 ubiquitin-protein ligase Mdm2 (Homo sapiens) (UniProt Q00987); assay: Inhibition of MDM2 in human SJSA1 cells assessed as induction of p53 stabilization after 20 hrs by Western blot analysis; type: cell-based; conditions: SJSA-1
SJSA-1 [18] = assay: Cell cycle arrest in human SJSA1 cells assessed as accumulation at G1 phase after 24 hrs; type: functional, cell-based
SJSA-1 [19] = assay: Antitumor activity against human SJSA1 cells xenografted in nude mouse assessed as tumor growth inhibition at 25 mg/kg, po after 2 weeks relative to control; type: functional; conditions: SJSA-1, 336 h, read-out: TGI
SJSA-1 [20] = assay: Cell cycle arrest in human SJSA1 cells assessed as accumulation at G2/M phase after 24 hrs; type: functional, cell-based
[21] = Cmax in C57 mouse at 20 mg/kg, po; type: ADME, organism-based; set-up: dose 20 mg/kg, route oral; conditions: in vivo
[22] = Oral bioavailability in C57 mouse at 20 mg/kg; type: ADME, organism-based; conditions: in vivo
[23] = Cmax in nude mouse at 50 mg/kg, po; type: ADME, organism-based; set-up: dose 50 mg/kg, route oral; conditions: in vivo
[24] = Oral bioavailability in nude mouse at 50 mg/kg; type: ADME, organism-based; conditions: in vivo
[25] = Total plasma clearance in C57 mouse at 3.6 mg/kg, iv; type: ADME, organism-based; set-up: dose 3.6 mg/kg, route intravenous
[26] = Cmax in C57 mouse at 25 mg/kg, po; type: ADME, organism-based; set-up: dose 25 mg/kg, route oral; conditions: in vivo
[27] = Apparent terminal half-life in C57 mouse at 3.6 mg/kg, iv; type: ADME, organism-based; set-up: dose 3.6 mg/kg, route intravenous; conditions: in vivo, read-out: betat1/2(app) (converted)
[28] = Oral bioavailability in C57 mouse at 25 mg/kg; type: ADME, organism-based; conditions: in vivo

Sequence of E3 ubiquitin-protein ligase Mdm2 (Homo sapiens) (Q00987 whole entry, looked up): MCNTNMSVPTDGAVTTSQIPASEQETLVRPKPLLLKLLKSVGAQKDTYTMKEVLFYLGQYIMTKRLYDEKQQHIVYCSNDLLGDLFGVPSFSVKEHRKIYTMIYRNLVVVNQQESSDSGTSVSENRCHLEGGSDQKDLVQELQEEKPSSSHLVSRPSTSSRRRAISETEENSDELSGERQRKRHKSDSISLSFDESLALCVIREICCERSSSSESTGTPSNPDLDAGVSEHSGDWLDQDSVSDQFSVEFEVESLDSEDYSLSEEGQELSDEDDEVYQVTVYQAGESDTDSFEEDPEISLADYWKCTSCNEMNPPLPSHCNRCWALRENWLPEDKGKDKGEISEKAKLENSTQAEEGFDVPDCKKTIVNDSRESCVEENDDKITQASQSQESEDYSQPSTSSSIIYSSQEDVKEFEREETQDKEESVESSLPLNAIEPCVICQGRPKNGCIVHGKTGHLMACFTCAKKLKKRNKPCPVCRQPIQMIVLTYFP

SMILES	clearance [1]	IC50 (SW480)	half-life [2]	IC50 (MDA-MB-435)	Cmax [3]	IC50 (RKO)	IC50 (SJSA-1 [4])	bioavailability [5]	CLhep predicted [6]	IC50 (HCT-116)	further results
CC(C)(C)C[C@@H]1N[C@@H](C(=O)Nc2ccc3cc(C(=O)O)ccc3c2)[C@H](c2cccc(Cl)c2F)[C@@]1(C#N)c1ccc(Cl)cc1F	24.5 mL/min/kg	12300 nM	1.41 h	9200 nM	1700 ng/mL	280 nM	40 nM	27%	9.4 mL/min/kg	140 nM	–
CCOc1cc(C(C)(C)C)ccc1C1=N[C@@](C)(c2ccc(Cl)cc2)[C@@](C)(c2ccc(Cl)cc2)N1C(=O)N1CCN(CCCS(C)(=O)=O)CC1 [RO-5045337]	–	–	–	–	–	–	–	–	5.8 mL/min/kg	–	inhibition in vivo at 100 mg/kg (SJSA-1 [7]): > 100%; half-life [8]: 2.7 h; inhibition in vivo at 50 mg/kg (SJSA-1 [9]): 74%; AUC [10]: 200 µg·h/mL; AUC [11]: 380 µg·h/mL; clearance [12]: 8.6 mL/min/kg
CC(C)(C)C[C@@H]1N[C@@H](C(=O)Nc2cccc(C(=O)O)c2)[C@H](c2cccc(Cl)c2F)[C@@]1(C#N)c1ccc(Cl)cc1F	–	15600 nM	–	9700 nM	–	1540 nM	160 nM	–	–	410 nM	–
COc1cc(C(=O)O)ccc1NC(=O)[C@@H]1N[C@@H](CC(C)(C)C)[C@](C#N)(c2ccc(Cl)cc2F)[C@H]1c1cccc(Cl)c1F [IDASANUTLIN]	10.3 mL/min/kg	13300 nM	1.6 h	9100 nM	9900 ng/mL	70 nM	10 nM	80%	4.3 mL/min/kg	10 nM	AUC [13]: 23 µg·h/mL; Activity (SJSA-1 [14]): Dose-dependent effect; AUC [15]: 29 µg·h/mL; inhibition in vivo at 12.5 mg/kg (SJSA-1 [16]): 88%; inhibition [17]: Dose-dependent effect; Activity (SJSA-1 [18]): Dose-dependent effect; inhibition in vivo at 25 mg/kg (SJSA-1 [19]): > 100%; Activity (SJSA-1 [20]): Dose-dependent effect
CC(C)(C)C[C@@H]1N[C@@H](C(=O)Nc2ccc(C(=O)O)c(F)c2)[C@H](c2cccc(Cl)c2F)[C@@]1(C#N)c1ccc(Cl)cc1F	18.4 mL/min/kg	15900 nM	4.4 h	11300 nM	3800 ng/mL	440 nM	50 nM	49%	12.2 mL/min/kg	140 nM	–
COc1cc(NC(=O)[C@@H]2N[C@@H](CC(C)(C)C)[C@](C#N)(c3ccc(Cl)cc3F)[C@H]2c2cccc(Cl)c2F)ccc1C(=O)O	21.8 mL/min/kg	18400 nM	4.8 h	6200 nM	4100 ng/mL	140 nM	30 nM	56%	6.6 mL/min/kg	40 nM	–
CC(C)(C)C[C@@H]1N[C@@H](C(=O)NCC[C@H](O)CO)[C@H](c2cccc(Cl)c2F)[C@@]1(C#N)c1ccc(Cl)cc1F	51.7 mL/min/kg	16800 nM	0.52 h	–	–	–	2100 nM	–	19.9 mL/min/kg	–	Cmax [21]: 300 ng/mL; bioavailability [22]: 3.6%
CC(C)(C)C[C@@H]1N[C@@H](C(=O)Nc2ccc(C(=O)O)cc2)[C@H](c2cccc(Cl)c2F)[C@@]1(C#N)c1ccc(Cl)cc1F	–	13800 nM	–	11100 nM	–	210 nM	40 nM	–	4.9 mL/min/kg	90 nM	half-life [8]: 4.34 h; Cmax [23]: 12000 ng/mL; bioavailability [24]: 83%; clearance [12]: 13.8 mL/min/kg
CC(C)(C)C[C@@H]1N[C@@H](C(=O)NCC[C@H](O)CO)[C@H](c2cccc(Cl)c2)[C@@]1(C#N)c1ccc(Cl)cc1	52.9 mL/min/kg	30000 nM	0.44 h	14400 nM	–	3000 nM	2100 nM	–	18.7 mL/min/kg	3400 nM	Cmax [21]: 500 ng/mL; bioavailability [22]: 6.2%
CC(C)(C)C[C@@H]1N[C@@H](C(=O)Nc2ccc(C(=O)O)cc2F)[C@H](c2cccc(Cl)c2F)[C@@]1(C#N)c1ccc(Cl)cc1F	11.5 mL/min/kg	13500 nM	3.1 h	11700 nM	18000 ng/mL	500 nM	90 nM	100%	7 mL/min/kg	200 nM	–
CC(C)(C)C[C@@H]1N[C@@H](C(=O)Nc2ccn(CC(C)(C)O)n2)[C@H](c2cccc(Cl)c2F)[C@@]1(C#N)c1ccc(Cl)cc1F	–	6280 nM	–	8560 nM	–	1420 nM	1320 nM	–	4.2 mL/min/kg	1420 nM	clearance [25]: 19.8 mL/min/kg; Cmax [26]: 10 ng/mL; half-life [27]: 1.48 h; bioavailability [28]: < 1%
CC(C)(C)C[C@@H]1N[C@@H](C(=O)Nc2ccc(C(=O)O)cn2)[C@H](c2cccc(Cl)c2F)[C@@]1(C#N)c1ccc(Cl)cc1F	29.7 mL/min/kg	13800 nM	1.03 h	11200 nM	3000 ng/mL	400 nM	50 nM	53%	8.9 mL/min/kg	90 nM	–
